The text below walks through data of patent US9226897B2, “Self-assembling nanoparticles for the release of bisphosphonates in the treatment of human cancers” (Istituti Fisioterapici Ospitalieri, priority 2010, dated 2016).

Molecules are shown by their SMILES.

In one series the test system is PC-3 cells. Description: In vivo antitumoral activity on prostate cancer, PC-3 xenograft in nude mice. On the set-up: species or system CD-1 nude (nu/nu) mice. The settings on record: PC-3 tumors in nude mice, 20 μg ZOL i.v. three times a week for three weeks.
In a further series the test system is Panc. Nature of the series: MTT proliferation assay, Panc pancreas cancer cells. The settings on record: Homo sapiens, 72 h, read-out: IC50 (50% inhibitory concentration), growth inhibition. The format is cell-based. The protocol: (§1) Human melanoma cells (M14) and doxorubicin resistant cells (M14+) were provided by Prof. G. Arancia form the National Institute of Health of Rome. […] Proliferation of human cancer cell lines was performed in the presence of increasing concentrations of different drugs by MTT assay as previously described by Caraglia et al. (Oncogene 2004).
(§2) It was studied the effect of increasing concentrations of ZOL encapsulated in pre- and post-PLCaP NPs on growth inhibition of different human cancer cell lines, by MTT assay. In Table 2, the IC50 (50% inhibitory concentration) values of ZOL, free or encapsulated in pre- or post-PLCaP NPs, in the different cell lines analysed after 72 h, are reported. […] Moreover, when using ZOL-encapsulating NPs, we found a potentiation factor (PF)>1.0 in all tested cell lines, if compared with the free ZOL. […] In particular, on MCF7, pre-PLCaPZ NPs caused an about 12-fold potentiation of ZOL-induced cytotoxicity, while a lower effect (about 8-fold) was found with post-PLCaP NPs.

A further series relates to MIA PaCa. Nature of the series: MTT proliferation assay, MIA PaCa pancreas cancer cells. The class given is cell-based. The following applies: Homo sapiens, MIA PaCa-2, 72 h, read-out: IC50 (50% inhibitory concentration), growth inhibition. The protocol:
as §1, §2
(Tetrazolium dyes change colour on reduction, which living cells bring about.)

In a further series the test system is KMS. Description: MTT proliferation assay, KMS multiple myeloma cells. The format is cell-based. The following applies: Homo sapiens, Multiple myeloma cell, 72 h, read-out: IC50 (50% inhibitory concentration), growth inhibition. The protocol:
as §1, §2

Another series concerns BX-PC3. Description: MTT proliferation assay, BX-PC3 pancreas cancer cells. The format is cell-based. The following applies: Homo sapiens, BXPC-3, 72 h, read-out: IC50 (50% inhibitory concentration), growth inhibition. The protocol: as §1, §2
The subject of the next series is DOX. Description: MTT proliferation assay, DOX multiple myeloma cells. The class given is cell-based. The following applies: Homo sapiens, Multiple myeloma cell, 72 h, read-out: IC50 (50% inhibitory concentration), growth inhibition. On the procedure: as §1, §2
The next series relates to PC3. Nature of the series: MTT proliferation assay, PC3 prostate cancer cells. The class given is cell-based. The following applies: Homo sapiens, PC-3, 72 h, read-out: IC50 (50% inhibitory concentration), growth inhibition. On the procedure:
as §1, §2

A further series concerns MCF7. Nature of the series: MTT proliferation assay, MCF7 breast cancer cells. The class given is cell-based. The settings on record: Homo sapiens, 72 h, read-out: IC50 (50% inhibitory concentration), growth inhibition. On the procedure:
as §1, §2

Another series deals with OPM2. Nature of the series: MTT proliferation assay, OPM2 multiple myeloma cells. The following applies: Homo sapiens, OPM-2, 72 h, read-out: IC50 (50% inhibitory concentration), growth inhibition. The format is cell-based. The protocol:
as §1, §2

Another series relates to KB. Nature of the series: MTT proliferation assay, KB head/neck cancer cells. The format is cell-based. The following applies: Homo sapiens, 72 h, read-out: IC50 (50% inhibitory concentration), growth inhibition. On the procedure: as §1, §2
A further series has as its system MDA-MB468. Description: MTT proliferation assay, MDA-MB468 breast cancer cells. The class given is cell-based. The following applies: Homo sapiens, MDA-MB-468, 72 h, read-out: IC50 (50% inhibitory concentration), growth inhibition. The protocol:
as §1, §2

The test system of another series is H1355. Description: MTT proliferation assay, H1355 lung cancer cells. The class given is cell-based. The settings on record: Homo sapiens, NCI-H1355, 72 h, read-out: IC50 (50% inhibitory concentration), growth inhibition. On the procedure:
as §1, §2

Another series has as its system DU145. Description: MTT proliferation assay, DU145 prostate cancer cells. The format is cell-based. The settings on record: Homo sapiens, DU-145, 72 h, read-out: IC50 (50% inhibitory concentration), growth inhibition. On the procedure: as §1, §2
The next series concerns RPMI. Description: MTT proliferation assay, RPMI multiple myeloma cells. The format is cell-based. The settings on record: Homo sapiens, Multiple myeloma cell, 72 h, read-out: IC50 (50% inhibitory concentration), growth inhibition. The protocol:
as §1, §2

For series [1] the following is noted: cited from earlier work.
For a further series, the system named is CG5. Description: MTT proliferation assay, CG5 breast cancer cells. The settings on record: Homo sapiens, 72 h, read-out: IC50 (50% inhibitory concentration), growth inhibition. The class given is cell-based. The protocol: as §1, §2
Setting [2] is: ZOL 4 mg intravenous over 15 min.

Description for PC-3 cells: CD-1 nude (nu/nu) mice, 6-8 weeks old were purchased from Charles River Laboratories (Milano, Italy).
Mice have been acclimated for one week before to be injected with tumor cells. Mice were injected intramuscularly with tumor cells at 3×10^6 cells/mouse in 200 μl of PBS. Six days after, a tumor mass of about 0.3 cm^3 in diameter was evident, mice were randomized in four groups. Six mice/group were treated with ZOL free or NP containing ZOL for 3 consecutive weeks. Tumor mass was calculated three times a week from caliper measurements by using the formula π/6 AB, where A is the major diameter and B is the minor diameter, corresponding to tumor mass (Sommer K. et al. International Journal of Oncology 2001). Toxicity was evaluating by measuring the body weight two times a week. Student's t test was used for statistical comparison of differences.
As control, a group of mice was treated with NP not containing ZOL, to evaluate the potential antitumoral effects. Mice were treated three times a week for three consecutive weeks. Antitumor efficacy of treatments was assessed by the following end-points: a) percent tumor weight inhibition (TWI %), calculated as [1-(mean tumor weight of treated mice/mean tumor weight of controls)]×100; b) tumor growth delay, evaluated as T−C, where T and C are the median times for treated (T) and untreated tumors (C), respectively, to achieve equivalent size.

Regarding `O=P(O)(O)C(O)(Cn1ccnc1)P(=O)(O)O` [free ZOL, zoledronic acid], the “TWI (%), percent tumor weight inhibition” value in the series on PC-3 cells (at the nadir of the effect) was 17%. For the same compound, the “T-C (days), tumor growth delay” value in the series with PC-3 cells (median times to equivalent size) worked out at 5 days. The IC50 in the series on Panc is 32 µM; in the series with MIA PaCa, 55 µM; with KMS, 30 µM; in the series on BX-PC3, 12.3 µM; in the series with DOX, 41.9 µM; in the series on PC3, 12.5 µM. Besides, the IC50 with MCF7 worked out at 120 µM; in the series on OPM2, 83 µM; in the series on KB, 22.8 µM; in the series on MDA-MB468, 28.4 µM; in the series with H1355, 65 µM; in the series with DU145, 25 µM. Also, the IC50 with RPMI came to 120 µM; in the series on CG5 it was 74 µM. The “distribution plasma half-life (t1/2)” value in series [1] (setting [2]) is 0.25 h. The “elimination plasma half-life (t1/2β)” value in [1] (setting [2]) was 1.75 h. For the same compound, the Cmax in [1] (ZOL 4 mg intravenous over 15 min, read-out: maximum plasma concentration (Cmax)) is about 1000 nM. The “initially administered dose retained in the skeleton” value in series [1] (in vivo) was “approximately 55%”.
